From the supplement of paper PMC10307832

Assays:
Assay in all cases: relative viability (nuclei count vs DMSO), 5 days (fraction); higher = more cells survive
[1] = compound: Cc1ccc2nc(NCCN)c3ncc(C)n3c2c1
In short: (§1)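 Five library-drug doses, separated by factors of √10, were pinned into 1536-well plates holding lung cancer cell lines after an overnight stay at 37 °C. Cells were fixed, permeabilised and Hoechst-stained in one step after 5 days without medium change, then imaged at 4×. Viability compares treated-well with vehicle-well nuclei, counted in MetaXpress, as a median across plates. Passing plates had control CV below 25% and at least one doubling.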

Salubrinal = compound: O=C(/C=C/c1ccccc1)NC(NC(=S)Nc1cccc2cccnc12)C(Cl)(Cl)Cl [Salubrinal]
In short: as §1

[2] = compound: Cc1ccc2nc(NCCN)c3ncc(C)n3c2c1 + CC1(C)CCC(c2ccc(Cl)cc2)=C(CN2CCN(c3ccc(C(=O)NS(=O)(=O)c4ccc(N[C@H](CCN5CCOCC5)CSc5ccccc5)c(S(=O)(=O)C(F)(F)F)c4)cc3)CC2)C1 [Navitoclax] (partner 0.5 µM)
In short: (§2)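 Lung cancer cell lines were seeded in 1536-well plates and dosed by pin tool the next day, with either a single drug or a fixed anchor-drug dose combined with five library-drug doses (not always all listed) spaced in √10 steps. Five days later, one step fixed the cells and stained their nuclei (final 0.05% Triton X-100, 1% formaldehyde, 1 ug/ml Hoechst), and nuclei were counted on 4× images. Relative viability is the nuclei count in treated wells divided by the count in vehicle wells, and each value is the median of duplicate plates.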

Salubrinal + Phenformin = compound: O=C(/C=C/c1ccccc1)NC(NC(=S)Nc1cccc2cccnc12)C(Cl)(Cl)Cl [Salubrinal] + N=C(N)NC(=N)NCCc1ccccc1 [Phenformin] (partner 250 µM)
In short: as §2

Cell Line | relative viability ([1]; 0.04 µM) | relative viability ([1]; 0.1265 µM) | relative viability ([1]; 0.4 µM) | relative viability ([1]; 1.265 µM) | relative viability ([1]; 4 µM) | relative viability (Salubrinal; 0.08 µM) | relative viability (Salubrinal; 0.253 µM) | relative viability (Salubrinal; 0.8 µM) | relative viability (Salubrinal; 2.53 µM) | relative viability (Salubrinal; 8 µM) | relative viability ([2]; first compound 0.04 µM) | relative viability ([2]; first compound 0.1265 µM) | relative viability ([2]; first compound 0.4 µM) | relative viability ([2]; first compound 1.265 µM) | relative viability ([2]; first compound 4 µM) | relative viability (Salubrinal + Phenformin; first compound 0.08 µM) | relative viability (Salubrinal + Phenformin; first compound 0.253 µM) | relative viability (Salubrinal + Phenformin; first compound 0.8 µM) | relative viability (Salubrinal + Phenformin; first compound 2.53 µM) | relative viability (Salubrinal + Phenformin; first compound 8 µM)
BEN | 1.07 | 0.931 | 0.93 | 1.03 | 1.04 | 1.07 | 0.961 | 1.07 | 1.15 | 0.976 | 0.0603 | 0.0647 | 0.0665 | 0.0492 | 0.0759 | 0.269 | 0.259 | 0.432 | 0.273 | 0.249
EMC-BAC-2 | 1 | 1 | 0.966 | 1.08 | 0.946 | 0.934 | 1.06 | 1.25 | 0.996 | 0.973 | 1.17 | 1.18 | 1.06 | 1.15 | 1.17 | 0.471 | 0.326 | 0.601 | 0.513 | 0.493
LU99A | 1.07 | 0.904 | 0.986 | 0.961 | 0.839 | 1.07 | 0.862 | 1.03 | 0.9 | 0.898 | 0.784 | 0.822 | 0.761 | 0.883 | 0.782 | 0.921 | 0.916 | 0.992 | 0.906 | 0.896
NCI-H1793 | 0.954 | 0.946 | 0.78 | 0.878 | 0.882 | 1.14 | 1.01 | 0.938 | 1.04 | 0.823 | 0.467 | 0.417 | 0.418 | 0.477 | 0.476 | 0.446 | 0.349 | 0.391 | 0.394 | 0.33
NCI-H2347 | 1.06 | 1.12 | 0.911 | 0.986 | 0.962 | 0.94 | 1.03 | 1.15 | 1.08 | 1.07 | 0.871 | 0.723 | 0.715 | 0.787 | 0.677 | 0.321 | 0.35 | 0.399 | 0.363 | 0.43
NCI-H1993 | 0.948 | 0.995 | 0.779 | 0.941 | 0.789 | 0.98 | 0.857 | 1.02 | 1 | 1.1 | 0.799 | 0.782 | 0.676 | 0.752 | 0.692 | 0.464 | 0.545 | 0.506 | 0.503 | 0.509
NCI-H322M | 0.983 | 0.915 | 0.988 | 0.987 | 0.996 | 1.01 | 0.869 | 0.963 | 0.988 | 0.811 | 1.15 | 1.16 | 1.19 | 1.25 | 1.22 | 0.783 | 0.725 | 0.929 | 0.769 | 0.678
NCI-H838 | 1.03 | 0.951 | 0.912 | 0.907 | 0.929 | 1.1 | 0.987 | 1.07 | 1.07 | 0.922 | 1.23 | 1.05 | 1.16 | 1.15 | 1.12 | 0.657 | 0.379 | 0.695 | 0.602 | 0.622
HARA | 0.913 | 0.956 | 0.928 | 0.843 | 0.973 | 1 | 0.956 | 1.02 | 0.908 | 1.17 | 1.16 | 1.15 | 1.14 | 1.08 | 1.21 | 0.607 | 0.484 | 0.483 | 0.445 | 0.47
NCI-H2087 | 1.13 | 1.15 | 0.861 | 0.997 | 0.953 | 1.16 | 0.931 | 1.07 | 0.989 | 0.968 | 0.985 | 1.09 | 1.01 | 0.856 | 1.06 | 0.472 | 0.361 | 0.527 | 0.471 | 0.476
NCI-H1437 | 1.02 | 0.982 | 0.988 | 0.939 | 0.873 | 0.992 | 0.922 | 1.12 | 1.02 | 0.968 | 1.08 | 1.03 | 1.12 | 1.07 | 0.992 | 0.314 | 0.251 | 0.343 | 0.283 | 0.306
NCI-H1792 | 0.984 | 0.987 |  | 0.963 | 0.826 | 1.05 |  | 1.32 | 1.01 | 0.811 | 0.642 | 0.658 | 0.645 | 0.619 | 0.594 | 0.258 |  | 0.368 | 0.239 | 0.262
ChaGo-K-1 | 0.958 | 1.01 | 1.05 | 1.01 | 0.874 | 1.05 | 0.912 | 1.15 | 1.01 | 0.922 | 0.983 | 1.15 | 0.913 | 0.976 | 0.782 | 0.506 | 0.461 | 0.535 | 0.455 | 0.45
COR-L23 | 1.05 | 1.04 | 0.964 | 0.994 | 0.994 | 1.11 | 1.1 | 1.06 | 0.966 | 0.95 | 1.05 | 0.944 | 1.1 | 0.973 | 0.886 | 0.526 | 0.359 | 0.458 | 0.422 | 0.433
COR-L 105 | 0.997 | 0.864 | 0.955 | 1.05 | 0.801 | 0.93 | 0.895 | 0.94 | 0.88 | 0.83 | 0.809 | 0.802 | 0.802 | 0.899 | 0.698 | 0.556 | 0.479 | 0.452 | 0.511 | 0.42
LK-2 | 0.961 | 0.928 | 0.881 | 0.979 | 1.03 | 1.08 | 1.01 | 1.27 | 1.16 | 1 | 0.831 | 0.65 | 0.886 | 0.77 | 0.789 | 0.502 | 0.466 | 0.675 | 0.3 | 0.395
